Literature values, collected in patent US20210401846A1, “MEDICAMENT, COMPOUND, COMPOSITION AND METHOD FOR TREATING HERPES” (priority 2020, published 2021).
Like-named read-outs stand apart in the source and are kept apart here.

Columns and labels:
[1] = not given; remark: listed apart in the source
[2] = biological target: T1, aldehyde oxidase (Homo sapiens, UniProt Q06278); details: in vitro inhibitors of aldehyde oxidase
T1 construct: host or cells: endogenous enzyme in vivo
T1 sequence (Q06278 1-1338): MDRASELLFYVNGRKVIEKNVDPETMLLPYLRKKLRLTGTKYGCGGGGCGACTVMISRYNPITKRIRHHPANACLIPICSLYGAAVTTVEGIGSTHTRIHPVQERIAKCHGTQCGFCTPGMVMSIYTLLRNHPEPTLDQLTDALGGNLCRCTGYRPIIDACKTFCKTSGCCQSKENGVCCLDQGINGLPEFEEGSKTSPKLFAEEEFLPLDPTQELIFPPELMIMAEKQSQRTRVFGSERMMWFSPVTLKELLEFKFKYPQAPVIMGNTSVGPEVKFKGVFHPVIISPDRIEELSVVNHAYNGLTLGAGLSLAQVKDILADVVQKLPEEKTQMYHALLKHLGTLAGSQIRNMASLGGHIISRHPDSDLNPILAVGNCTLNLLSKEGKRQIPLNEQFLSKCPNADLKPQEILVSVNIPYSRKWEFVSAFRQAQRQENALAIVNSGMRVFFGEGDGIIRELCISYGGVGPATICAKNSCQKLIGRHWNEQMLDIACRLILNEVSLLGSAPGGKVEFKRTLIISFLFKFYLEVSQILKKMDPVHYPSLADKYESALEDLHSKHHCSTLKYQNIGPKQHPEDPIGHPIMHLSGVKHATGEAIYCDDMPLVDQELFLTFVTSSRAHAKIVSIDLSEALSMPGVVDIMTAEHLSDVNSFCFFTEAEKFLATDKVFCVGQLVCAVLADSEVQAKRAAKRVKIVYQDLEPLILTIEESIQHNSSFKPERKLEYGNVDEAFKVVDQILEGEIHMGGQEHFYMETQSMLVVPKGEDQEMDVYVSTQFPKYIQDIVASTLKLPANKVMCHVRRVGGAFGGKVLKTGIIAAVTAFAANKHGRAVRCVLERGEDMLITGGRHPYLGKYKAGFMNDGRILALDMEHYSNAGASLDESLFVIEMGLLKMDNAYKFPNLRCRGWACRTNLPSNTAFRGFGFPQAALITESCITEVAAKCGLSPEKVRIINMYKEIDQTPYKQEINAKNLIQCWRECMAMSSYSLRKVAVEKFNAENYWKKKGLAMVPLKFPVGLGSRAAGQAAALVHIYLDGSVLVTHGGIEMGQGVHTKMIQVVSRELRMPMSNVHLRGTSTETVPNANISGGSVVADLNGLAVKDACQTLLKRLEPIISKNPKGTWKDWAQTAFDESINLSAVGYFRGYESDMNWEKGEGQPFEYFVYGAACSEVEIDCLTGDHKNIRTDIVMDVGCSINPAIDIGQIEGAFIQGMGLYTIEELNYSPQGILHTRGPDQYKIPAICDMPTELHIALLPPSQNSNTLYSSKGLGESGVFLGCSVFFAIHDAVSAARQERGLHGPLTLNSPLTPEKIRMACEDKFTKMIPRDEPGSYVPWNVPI

[3] = during therapy
[4] = system: cytochrome P450; details: human liver microsomes
[5] = for half-life: 17 patients with herpes zoster
[6] = not given; remark: listed apart in the source
[7] = not given; remark: listed apart in the source
[8] = after single oral 500 mg radiolabeled famciclovir
[9] = single oral 500 mg radiolabeled famciclovir, 3 healthy male volunteers
[10] = oral administration of radiolabeled valacyclovir
[11] = oral single dose 500 mg famciclovir, 7 patients with herpes zoster

Nc1ncc2ncn(CCC(CO)CO)c2n1 [6-deoxy penciclovir]
share of the radioactivity excreted in the urine [8]: 7% | inactive metabolite, % of the dose in the urine (oral administration of famciclovir): 5%

Nc1nc2c(ncn2COCCO)c(=O)[nH]1 [Acyclovir]
Excretion: urine, primarily as acyclovir ([1]; in vivo): 89%

CN/C(=N/CCSCc1nc[nH]c1C)NC#N [Cimetidine]
effects on the formation of penciclovir in vivo [2]: did not show relevant effects

CC(=O)OCC(CCn1cnc2cnc(N)nc21)COC(C)=O [Famciclovir, famciclovir]
clinically apparent liver injury [3]: has not been associated with instances of clinically apparent liver injury | serum ALT elevations [3]: low rate of mild-to-moderate serum ALT elevations | famciclovir detected in plasma or urine (oral administration): Little or no | radiolabeled dose collected in urine in the first 6 hours (single oral 500 mg radiolabeled famciclovir): Approximately 60% | administered radioactivity recovered in feces over 72 hours [9]: 27% | administered radioactivity recovered in urine over 72 hours [9]: 73% | role of cytochrome P450 in famciclovir metabolism [4]: does not play an important role

CC(C)[C@H](N)C(=O)OCCOCn1cnc2c(=O)[nH]c(N)nc21 [Valacyclovir]
Half-life elimination ([1]; normal renal function, adults): ~0.5 h | Bioavailability ([1]; once converted to acyclovir): ~55% | label eliminated in the feces (nonabsorbed drug) [1, 10]: 46% | radiolabel eliminated in the urine [1, 10]: 47% | Absorption ([1]; valacyclovir): Rapid | clinically apparent liver injury [3]: rare instances mild, clinically apparent liver injury

Nc1nc2c(ncn2CCC(CO)CO)c(=O)[nH]1 [penciclovir]
half-life ([5]; repeated doses): 2.7 ± 1.0 h | half-life ([5]; single dose): 2.8 ± 1.0 h | AUC of penciclovir greater in patients with herpes zoster as compared to healthy volunteers ([5]; human, in vivo): approximately 35% | AUC (mean±SD) [5, 11]: 12100 ± 1700 ng·h/mL | Cmax [5, 11]: 4000 ± 700 ng/mL | tmax [5, 11]: 0.7 ± 0.2 h | dose excreted in the first 6 hours (5 mg/kg radiolabeled penciclovir, 1-hour infusion): 83% | administered radioactivity recovered in urine over 24 hours (5 mg/kg radiolabeled penciclovir, 1-hour infusion, 3 healthy male volunteers): Approximately 94% | accumulation of penciclovir (500 mg famciclovir three times daily for 7 days): no accumulation | share of the radioactivity excreted in the urine (after 5 mg/kg radiolabeled penciclovir infusion): 91% | share of the radioactivity excreted in the urine [8]: 82% | Penciclovir concentrations vs dose (famciclovir 125 mg to 1000 mg single dose): increased in proportion to dose | renal clearance as share of total plasma clearance (intravenous penciclovir): 74.5±8.8% | blood/plasma ratio [6]: approximately 1 | bound to plasma proteins ([6]; concentration range 0.1 to 20 mcg/mL): < 20% | Cmax decrease ([7]; capsule formulation of famciclovir administered with food (approx. 910 Kcal, 26% fat)): approximately 50% | decrease in Cmax ([7]; famciclovir 2 hours after a meal vs 2 hours before a meal): 18%

CC(CN1c2ccccc2Sc2ccccc21)N(C)C (centres unmarked) [promethazine]
effects on the formation of penciclovir in vivo [2]: did not show relevant effects
